Results published in patent publication US12655116B2, “Substituted isophthalic acid diamides” (Bayer Aktiengesellschaft, priority 2020, dated 2026).

How the values were obtained:
SETVI [1] = assay: Pre-emergence herbicidal action against SETVI; type: in vivo, Setaria viridis; conditions: dosage 80 g/ha
How it was run: (§1)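 Herbicidal effect was assessed 3 weeks after treatment by visual comparison with untreated controls, 100% denoting dead plants. Aqueous WP or EC preparations had been applied at 600 to 800 l/ha with 0.2% wetting agent to the soil covering freshly sown seeds.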

ABUTH [2] = assay: Post-emergence herbicidal action against ABUTH; type: in vivo, Abutilon theophrasti; conditions: visual assessment about 3 weeks after treatment vs untreated controls
How it was run: (§2)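 Herbicidal effect was scored visually in percent after about 3 weeks in the greenhouse. Plants had been raised in sandy loam and treated post-emergence at the one-leaf stage with formulated compound at 600 to 800 l/ha water plus 0.2% wetting agent.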

AVEFA [3] = assay: Pre-emergence herbicidal action against AVEFA; type: in vivo, Avena fatua; conditions: pre-emergence
How it was run: as §1

ABUTH [4] = assay: Pre-emergence herbicidal action against ABUTH; type: in vivo, Abutilon theophrasti
How it was run: as §1

VIOTR [5] = assay: Post-emergence herbicidal action against VIOTR; type: in vivo, Viola tricolor
How it was run: as §2

MATIN [6] = assay: Post-emergence herbicidal action against MATIN; type: in vivo, Matricaria inodora
How it was run: as §2

VIOTR [7] = assay: Pre-emergence herbicidal action against VIOTR; type: in vivo, Viola tricolor
How it was run: as §1

DIGSA [8] = assay: Post-emergence herbicidal action against DIGSA; type: in vivo, Digitaria sanguinalis
How it was run: as §2

DIGSA [9] = assay: Pre-emergence herbicidal action against DIGSA; type: in vivo, Digitaria sanguinalis
How it was run: as §1

ALOMY [10] = assay: Pre-emergence herbicidal action against ALOMY; type: in vivo, Alopecurus myosuroides; conditions: 80 g/ha, pre-emergence, scored visually after 3 weeks vs untreated controls (100% = plants have died, 0% = like control plants)
How it was run: as §1

MATIN [11] = assay: Pre-emergence herbicidal action against MATIN; type: in vivo, Matricaria inodora
How it was run: as §1

ALOMY [12] = assay: Post-emergence herbicidal action against ALOMY; type: in vivo, Alopecurus myosuroides; conditions: visual assessment about 3 weeks after treatment vs untreated controls
How it was run: as §2

VERPE [13] = assay: Post-emergence herbicidal action against VERPE; type: in vivo, Veronica persica; conditions: 20 g/ha
How it was run: as §2

ECHCG [14] = assay: Post-emergence herbicidal action against ECHCG; type: in vivo, Echinochloa crus-galli
How it was run: as §2

AMARE [15] = assay: Pre-emergence herbicidal action against AMARE; type: in vivo, Amaranthus retroflexus
How it was run: as §1

AVEFA [16] = assay: Post-emergence herbicidal action against AVEFA; type: in vivo, Avena fatua; conditions: 20 g/ha, visual assessment about 3 weeks after treatment, 100% = plants have died, 0% = like control plants
How it was run: as §2

AMARE [17] = assay: Post-emergence herbicidal action against AMARE; type: in vivo, Amaranthus retroflexus; conditions: 20 g/ha, visual assessment about 3 weeks after treatment, 100% = plants have died, 0% = like control plants
How it was run: as §2

VERPE [18] = assay: Pre-emergence herbicidal action against VERPE; type: in vivo, Veronica persica
How it was run: as §1

ECHCG [19] = assay: Pre-emergence herbicidal action against ECHCG; type: in vivo, Echinochloa crus-galli; conditions: 80 g/ha
How it was run: as §1

SETVI [20] = assay: Post-emergence herbicidal action against SETVI; type: in vivo, Setaria viridis
How it was run: as §2

POLCO = assay: Pre-emergence herbicidal action against POLCO; type: in vivo, Polygonum convolvulus; conditions: dosage 80 g/ha
How it was run: as §1

PHBPU [21] = assay: Pre-emergence herbicidal action against PHBPU; type: in vivo, Pharbitis purpurea
How it was run: as §1

PHBPU [22] = assay: Post-emergence herbicidal action against PHBPU; type: in vivo, Pharbitis purpurea; conditions: Ipomoea purpurea, 504 h, dosage 20 g/ha
How it was run: as §2

[23] = 80 g/ha, scored visually after 3 weeks vs untreated controls (100% = plants have died, 0% = like control plants)
[24] = Tripleurospermum inodorum, 504 h, dosage 20 g/ha

## CCn1nnnc1NC(=O)c1ccc(C(F)(F)F)c(C(=O)NC(C)C2CC2)c1C1CC1 (stereo not drawn) [Example 2-292]
SETVI [1]
  Pre-emergence action against SETVI in %: 100%
ABUTH [2]; dosage 20 g/ha
  Post-emergence action against ABUTH in %: 80%
AVEFA [3]; 80 g/ha
  Pre-emergence action against AVEFA in %: 90%
ABUTH [4]; [23]
  Pre-emergence action against ABUTH (herbicidal activity): 100%
ABUTH [4]; dosage 20 g/ha, scored visually after 3 weeks vs untreated controls, 100% = plants have died, 0% = like control plants
  Pre-emergence action against ABUTH (herbicidal activity in percent): 100%
VIOTR [5]; 20 g/ha
  Post-emergence action against VIOTR in %: 80%
MATIN [6]; dosage 5 g/ha
  Post-emergence action against MATIN in %: 80%
MATIN [6]; dosage 20 g/ha
  Post-emergence action against MATIN in %: 90%
VIOTR [7]; dosage 20 g/ha
  Pre-emergence action against VIOTR in %: 100%
VIOTR [7]; dosage 80 g/ha
  Pre-emergence action against VIOTR in %: 100%
DIGSA [8]; 5 g/ha
  Post-emergence action against DIGSA in %: 90%
DIGSA [8]; 20 g/ha
  Post-emergence action against DIGSA: 90%
DIGSA [9]; dosage 20 g/ha
  Pre-emergence action against DIGSA in %: 100%
DIGSA [9]; dosage 80 g/ha
  Pre-emergence action against DIGSA in %: 100%
ALOMY [10]
  Pre-emergence action against ALOMY (herbicidal activity): 90%
MATIN [11]; dosage 20 g/ha
  Pre-emergence action against MATIN in %: 90%
MATIN [11]; dosage 80 g/ha
  Pre-emergence action against MATIN in %: 100%
ALOMY [12]; dosage 20 g/ha
  Post-emergence action against ALOMY in %: 80%
VERPE [13]
  Post-emergence action against VERPE in %: 80%
ECHCG [14]; dosage 5 g/ha
  Post-emergence action against ECHCG in %: 80%
ECHCG [14]; dosage 20 g/ha
  Post-emergence action against ECHCG in %: 80%
AMARE [15]; 20 g/ha, scored visually after 3 weeks vs untreated controls, 100% = plants have died, 0% = like control plants
  Pre-emergence action against AMARE in %: 100%
AMARE [15]; [23]
  Pre-emergence action against AMARE in %: 100%
AVEFA [16]
  Post-emergence action at 20 g/ha against AVEFA in %: 80%
AMARE [17]
  Post-emergence action at 20 g/ha against AMARE in %: 90%
VERPE [18]; dosage 20 g/ha
  Pre-emergence action against VERPE in %: 90%
VERPE [18]; dosage 80 g/ha
  Pre-emergence action against VERPE in %: 100%
ECHCG [19]
  Pre-emergence action against ECHCG in %: 100%
SETVI [20]; dosage 20 g/ha
  Post-emergence action against SETVI in %: 80%
POLCO
  Pre-emergence action against POLCO in %: 100%
PHBPU [21]; dosage 20 g/ha
  Pre-emergence action against PHBPU in %: 80%
PHBPU [21]; dosage 80 g/ha
  Pre-emergence action against PHBPU in %: 90%

## CCn1nnnc1NC(=O)c1ccc(C(F)F)c(C(=O)NC(C)C)c1C [Example 2-345]
SETVI [1]; Setaria viridis, 504 h
  pest or weed control at 80 g/ha: 100%
ABUTH [2]; Abutilon theophrasti, 504 h, dosage 5 g/ha
  pest or weed control at 5 g/ha: 90%
ABUTH [2]; Abutilon theophrasti, 504 h, dosage 20 g/ha
  pest or weed control at 20 g/ha: 90%
AVEFA [3]; Avena fatua, 504 h, 80 g/ha
  pest or weed control at 80 g/ha: 80%
AVEFA [3]; Avena fatua, 504 h, 20 g/ha, scored visually after 3 weeks, 100% = plants have died, 0% = like control plants
  pest or weed control at 20 g/ha: 80%
ABUTH [4]; Abutilon theophrasti, 504 h, 80 g/ha, scored visually after 3 weeks vs untreated controls (100% = plants have died, 0% = like control plants)
  pest or weed control at 80 g/ha: 100%
ABUTH [4]; Abutilon theophrasti, 504 h, dosage 20 g/ha, scored visually after 3 weeks vs untreated controls, 100% = plants have died, 0% = like control plants, read-out: Pre-emergence action against ABUTH (herbicidal activity in percent)
  pest or weed control at 20 g/ha: 90%
VIOTR [5]; Viola tricolor, 504 h, 5 g/ha
  pest or weed control at 5 g/ha: 90%
VIOTR [5]; Viola tricolor, 504 h, 20 g/ha
  pest or weed control at 20 g/ha: 90%
MATIN [6]; Tripleurospermum inodorum, 504 h, dosage 5 g/ha
  pest or weed control at 5 g/ha: 90%
MATIN [6]; [24]
  pest or weed control at 20 g/ha: 100%
VIOTR [7]; Viola tricolor, 504 h, dosage 20 g/ha
  pest or weed control at 20 g/ha: 80%
VIOTR [7]; Viola tricolor, 504 h, dosage 80 g/ha
  pest or weed control at 80 g/ha: 100%
ALOMY [10]; Alopecurus myosuroides, 504 h
  pest or weed control at 80 g/ha: 80%
PHBPU [22]
  pest or weed control at 20 g/ha: 100%
MATIN [11]; [24]
  pest or weed control at 20 g/ha: 100%
MATIN [11]; Tripleurospermum inodorum, 504 h, dosage 80 g/ha
  pest or weed control at 80 g/ha: 100%
ALOMY [12]; Alopecurus myosuroides, 504 h, dosage 5 g/ha
  pest or weed control at 5 g/ha: 80%
ALOMY [12]; Alopecurus myosuroides, 504 h, dosage 20 g/ha
  pest or weed control at 20 g/ha: 80%
VERPE [13]; Veronica persica, 504 h
  pest or weed control at 20 g/ha: 80%
ECHCG [14]; Echinochloa crus-galli, 504 h, dosage 20 g/ha
  pest or weed control at 20 g/ha: 80%
AMARE [15]; Amaranthus retroflexus, 504 h, 20 g/ha, scored visually after 3 weeks vs untreated controls, 100% = plants have died, 0% = like control plants
  pest or weed control at 20 g/ha: 100%
AMARE [15]; Amaranthus retroflexus, 504 h, 80 g/ha, scored visually after 3 weeks vs untreated controls, 100% = plants have died, 0% = like control plants
  pest or weed control at 80 g/ha: 100%
AVEFA [16]; Avena fatua, 504 h
  pest or weed control at 20 g/ha: 80%
AMARE [17]; Amaranthus retroflexus, 504 h
  pest or weed control at 20 g/ha: 100%
VERPE [18]; Veronica persica, 504 h, dosage 80 g/ha
  pest or weed control at 80 g/ha: 100%
ECHCG [19]; Echinochloa crus-galli, 504 h
  pest or weed control at 80 g/ha: 90%
SETVI [20]; Setaria viridis, 504 h, dosage 5 g/ha
  pest or weed control at 5 g/ha: 80%
SETVI [20]; Setaria viridis, 504 h, dosage 20 g/ha
  pest or weed control at 20 g/ha: 100%
POLCO; Fallopia convolvulus, 504 h
  pest or weed control at 80 g/ha: 90%
PHBPU [21]; Ipomoea purpurea, 504 h, dosage 80 g/ha
  pest or weed control at 80 g/ha: 80%
